# According to article PMC8159385, “Chemical synthesis of human syndecan-4 glycopeptide bearing O-, N-sulfation and multiple aspartic acids for probing impacts of the glycan chain and the core peptide on biological functions” (Chemical Science, 2020):
# Like-named read-outs stand apart in the source and are kept apart here. Residues, ends and D or L forms follow the SMILES beside them. *: point of attachment. X1 = O=C(O)[C@H]1O[C@@H](O[C@H]2[C@@H](O)[C@@H](CO)O[C@@H](O[C@H]3[C@@H](O)[C@@H](CO)O[C@@H](O[C@@H]4CO[C@@H](*)[C@H](O)[C@H]4O)[C@@H]3O)[C@@H]2O)[C@H](O)[C@@H](O)[C@@H]1O[C@H]1O[C@H](COS(=O)(=O)O)[C@@H](O)[C@H](O)[C@H]1NS(=O)(=O)O; Biotin = O=C1N[C@H]2[C@H](CS[C@H]2CCCCC(=O)*)N1; Ahx = NCCCCCC(=O)O
# Assays:
# [1] = target: CCL-13 (Homo sapiens, UniProt Q99616); assay: BLI binding assay, biotinylated compounds on streptavidin biosensors, CCL-13; set-up: key to K D CCL-13: Inactive denotes a KD value greater than 400 μM; settings: for Kd: Table 2, read-out: K D CCL-13
# Procedure: (§1) Cytokines and growth factors are important proteins modulating cellular functions, many of which are known to interact with HS.[1,8,34,67] To probe the impacts of the glycan and the core peptide, the binding of glycopeptide 1, pentasaccharide 30, and peptide 31 to several representative growth factors and cytokines including fibroblast growth factor 2 (FGF-2), interleukin 8 (IL-8) and chemokine (C–C motif ligand 13 (CCL-13)) respectively was tested using the biolayer interferometry (BLI). The biotinylated glycopeptide 1, pentasaccharide 30, and peptide 31 were immobilized on streptavidin coated biosensors, and their dissociation constants (KD) with the proteins were measured (Table 2). […]
# (§2) General procedure for biotinylation
# (§3) To a solution of free amine compounds in DMSO/H 2O (1/1, 0.5 ml) was added […]
# (§4) The reaction was stirred at room temperature for 5 hours. Then the mixture was loaded onto a G-15 Sephadex column for purification. […] General procedure for BLI binding assay
# (§5) The binding assay was performed on the Octet K2 System (Pall ForteBio). The biotinylated […]
# (§6) compounds were absorbed to streptavidin (SA) sensor for 2 min. The sensor was then balanced in the assay buffer (PBS containing 0.005% P20) and dipped into protein solution in assay buffer at different concentration. After 5 min of association, the sensor was brought back to the previous assay
# [2] = target: T1, IL-8 (Homo sapiens, UniProt P10145); assay: BLI binding assay, biotinylated compounds on streptavidin biosensors, IL-8; settings: Table 2, read-out: K D IL-8
# T1 sequence (P10145 21-99): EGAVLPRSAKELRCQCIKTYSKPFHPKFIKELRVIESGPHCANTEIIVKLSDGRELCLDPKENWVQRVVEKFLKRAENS
# Procedure: as §1, §2, §3, §4, §5, §6
# [3] = target: T2, heparanase (Homo sapiens, UniProt Q9Y251); assay: Fondaparinux colorimetric heparanase assay; format: biochemical; settings: for inhibition at 3.3 µM: 3.3 μM compound; for inhibition at 3.3 µM / inhibition at 10 µM / inhibition at 33 µM: heparanase 5 nM; for inhibition at 10 µM: 10 μM compound; for inhibition at 33 µM: 33 μM compound
# T2 sequence (Q9Y251 158-543 limits assumed): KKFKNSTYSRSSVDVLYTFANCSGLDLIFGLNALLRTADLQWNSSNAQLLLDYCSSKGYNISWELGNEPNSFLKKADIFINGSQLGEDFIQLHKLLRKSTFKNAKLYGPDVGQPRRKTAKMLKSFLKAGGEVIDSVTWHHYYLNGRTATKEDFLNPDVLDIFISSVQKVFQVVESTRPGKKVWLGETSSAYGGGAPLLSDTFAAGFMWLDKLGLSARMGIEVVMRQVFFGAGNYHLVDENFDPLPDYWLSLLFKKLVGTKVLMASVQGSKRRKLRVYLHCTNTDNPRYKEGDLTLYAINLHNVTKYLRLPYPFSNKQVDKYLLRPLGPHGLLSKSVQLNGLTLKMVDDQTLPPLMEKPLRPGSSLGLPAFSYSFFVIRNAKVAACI
# T2 sequence (Q9Y251 36-109 limits assumed): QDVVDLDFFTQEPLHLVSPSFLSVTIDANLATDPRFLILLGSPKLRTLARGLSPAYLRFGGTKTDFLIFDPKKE
# Source text: With the synthetic glycopeptide and the corresponding peptide and glycan in hand, we began to probe the impacts of glycan and peptide on biological functions of the glycopeptide. The endoglycosidase heparanase is an important enzyme for HS metabolism, which can cleave HS polysaccharide chains at the cell surface or in the extracellular matrix.[63] Heparanase activities are important for a variety of biological processes, including tumor metastasis and cell proliferation.[64] […]
# General procedure for heparanase assays
# Fondaparinux colorimetric heparanase assays were carried out in 96 well microplates (NEST Scientific 96 Well Cell Culture Plate, 701002) pre-treated with a solution of 4% BSA in phosphate-buffered saline containing 0.05% Tween 20 (PBST) for 2 h at 37 °C. A ssay solutions (100 ul) contained sodium acetate buffer (40 mM, pH 5.0) and fondaparinux ([…], MedChemExpress), heparanase (5 nM) and varying concentrations of compounds of interests or heparin. The mixture was kept at 37 °C for 20 h, which was followed by addition of a solution of WST-1 (100 μL of 1.69 mM WST-1 in 0.1 M NaOH) and incubation at 60 °C for 1 h after which the absorbance at 584 nm was measured (Fluostar Optima plate reader, BMG Labtech). […]
# [4] = target: FGF-2 (Homo sapiens, UniProt P09038); assay: BLI binding assay, biotinylated compounds on streptavidin biosensors, FGF-2
# Procedure: as §1, §2
# To a solution of free amine compounds in DMSO/H 2O (1/1, 0.5 ml) was added sulfo-NHS-LC-Biotin (5 equiv) and DIPEA (pH ~ 8.5). The reaction was stirred at room temperature for 5 hours. Then the mixture was loaded onto a G-15 Sephadex column for purification. […] General procedure for BLI binding assay
# as §5
# compounds were absorbed to streptavidin (SA) sensor for 2 min. The sensor was then balanced in the assay buffer (PBS containing 0.005% P20) and dipped into protein solution in assay buffer at different concentration. After 5 min of association, the sensor was brought back to the previous assay buffer for a 5 min dissociation step. At the end of the assay, the sensor was regenerated in 2 M NaCl to remove the bound protein. Each measurement was repeated 3 times on the same sensor. The control assay was done with another sensor loaded with saturated biotin solution. […]
# MD trajectories were generated from the protein system without any ligand to relax the structure and minimize the pocket restrictions caused by the present ligand in the structure.
# The geometries of compounds 2, 28 and 29 were optimized using the Gaussian 16 program package. The optimizations were performed using the AM1 method.1 The obtained Mulliken charges were used with the antechamber module of Amber 16 in the generation of parameters. The systems were prepared using the Leap module of AmberTools162 under the AMBER ff14SB and GAFF force fields. Each enzyme complex was solvated in a 14 Å cube of TIP4P-Ew water beyond the solute and 100 mM sodium chloride. The systems were relaxed under NVT conditions over six minimization procedures with decreasing restraints on the protein of 500.0, 200.0, 20.0, 10.0, 5.0 kcal/(mol Å2) to no restraints. The systems were then heated to 300 K over 30 ps. Atomistic molecular dynamics simulations were performed for 30 ns at 300 K and 1 atm using AMBER 16. The SHAKE algorithm constrained bonds involving hydrogen. 3 The trajectories were produced using Langevin dynamics and the pressure of the system was regulated with isotropic position scaling. Long -range electrostatic effects were modeled using the particle-mesh Ewald method with a 10 Å cutoff.
# The produced trajectories were analyzed using AMBER 16 and visualized with MOE and the UCSF Chimera package. Free energy of binding was calculated for every picosecond using the Poisson Boltzmann model form the MMPBSA.py module of AmberTools and AMBER 16. The relative free energy trends between models were compared so solute entropy was neglected.
# Following the general procedure for solid-phase peptide synthesis, peptide 29 was obtained in 52% […]
# RP-HPLC retention time, tR = 24.4 min.
# Following the general procedure for biotinylation, peptide 31 was obtained from 12-mer peptide 29 in 56% yield. The overall yield based on resin loading is 29%. HRMS: C65H103N15O28S [M - 2H]2- […]
# Figure S1: Binding of synthetic compounds 1, 31 and 30 to protein FGF2 as measured by BLI (a-c respectively). The biotinylated compounds (2 μM ) were immobilized on streptavidin coated biosensors, and FGF2 was captured on biosensors with six concentrations at 291 nM, 145 nM, […], 39 nM, 20 nM, 10 nM. Fitting curves were shown in red lines. […]
# [5] = BLI, Table 2, read-out: K D FGF2
# [6] = Table S2, KD values from BLI measurements, read-out: Experimental KD
# Chain of FGF-2 (P09038 143-288, species assumed): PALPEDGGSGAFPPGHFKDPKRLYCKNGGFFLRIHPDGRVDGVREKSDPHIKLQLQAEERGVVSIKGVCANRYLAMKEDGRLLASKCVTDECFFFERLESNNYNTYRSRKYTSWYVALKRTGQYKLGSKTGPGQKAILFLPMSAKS
# Chain of CCL-13 (Q99616 17-98, species assumed): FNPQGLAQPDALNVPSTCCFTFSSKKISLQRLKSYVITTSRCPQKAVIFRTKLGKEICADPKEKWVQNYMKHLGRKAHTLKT
Compound,Kd [1] [µM],Kd [2] [µM],inhibition at 3.3 µM [3] [%],inhibition at 10 µM [3] [%],inhibition at 33 µM [3] [%],inhibition of heparanase at concentrations up to 100 μM [3],"Kd [4, 5] [µM]","FGF-2 binding, fold higher than pentasaccharide 30 and peptide 31 ([4]; ratio of KD values)","Kd [4, 6] [µM]",KD with CCL-13 [1],K D CCL-13 ([1]; Table 2)
CC(C)C[C@H](NC(=O)CCCCCNC(=O)CCCC[C@@H]1SC[C@@H]2NC(=O)N[C@@H]21)C(=O)N[C@@H](CO)C(=O)NCC(=O)N[C@@H](CO[C@@H]1OC[C@@H](O[C@@H]2O[C@H](CO)[C@H](O)[C@H](O[C@@H]3O[C@H](CO)[C@H](O)[C@H](O[C@@H]4O[C@H](C(=O)O)[C@@H](O[C@H]5O[C@H](COS(=O)(=O)O)[C@@H](O)[C@H](O)[C@H]5NS(=O)(=O)O)[C@H](O)[C@H]4O)[C@H]3O)[C@H]2O)[C@H](O)[C@H]1O)C(=O)NCC(=O)N[C@@H](CC(=O)O)C(=O)N[C@@H](CC(C)C)C(=O)N[C@@H](CC(=O)O)C(=O)N[C@@H](CC(=O)O)C(=O)N[C@@H](CC(C)C)C(=O)N[C@@H](CCC(=O)O)C(=O)N[C@@H](CC(=O)O)C(=O)O [Compound 1] ({Biotin-Ahx}-LSGS(X1)GDLDDLED-OH),0.498,0.028,< 0,< 0,< 0,neither peptide 31 nor glycopeptide 1 were able to inhibit heparanase,0.005,about 3 fold,–,–,–
CC(C)C[C@H](NC(=O)CCCCCNC(=O)CCCC[C@@H]1SC[C@@H]2NC(=O)N[C@@H]21)C(=O)N[C@@H](CO)C(=O)NCC(=O)N[C@@H](CO)C(=O)NCC(=O)N[C@@H](CC(=O)O)C(=O)N[C@@H](CC(C)C)C(=O)N[C@@H](CC(=O)O)C(=O)N[C@@H](CC(=O)O)C(=O)N[C@@H](CC(C)C)C(=O)N[C@@H](CCC(=O)O)C(=O)N[C@@H](CC(=O)O)C(=O)O [Compound 31] ({Biotin-Ahx}-LSGSGDLDDLED-OH; N-terminus and C-terminus assumed),0.092,0.075,< 0,< 0,< 0,neither peptide 31 nor glycopeptide 1 were able to inhibit heparanase,0.017,–,–,–,–
CC(C)C[C@H](NC(=O)[C@H](CC(=O)O)NC(=O)CNC(=O)[C@H](CO)NC(=O)CNC(=O)[C@H](CO)NC(=O)[C@@H](N)CC(C)C)C(=O)N[C@@H](CC(=O)O)C(=O)N[C@@H](CC(=O)O)C(=O)N[C@@H](CC(C)C)C(=O)N[C@@H](CCC(=O)O)C(=O)N[C@@H](CC(=O)O)C(=O)O [Compound 29] (H-LSGSGDLDDLED-OH),–,–,–,–,–,–,–,–,0.017,–,–
O=C(CCCCC1SCC2NC(=O)NC21)NCCCCCC(=O)NCCCOC1OCC(OC2OC(CO)C(O)C(OC3OC(CO)C(O)C(OC4OC(C(=O)O)C(OC5OC(COS(=O)(=O)O)C(O)C(O)C5NS(=O)(=O)O)C(O)C4O)C3O)C2O)C(O)C1O (stereo not drawn) [Compound 30],–,0.039,< 0,32,61,–,0.0145,–,–,did not exhibit much binding,Inactive
NCCCO[C@@H]1OC[C@@H](O[C@@H]2O[C@H](CO)[C@H](O)[C@H](O[C@@H]3O[C@H](CO)[C@H](O)[C@H](O[C@@H]4O[C@H](C(=O)O)[C@@H](O[C@H]5O[C@H](COS(=O)(=O)O)[C@@H](O)[C@H](O)[C@H]5NS(=O)(=O)O)[C@H](O)[C@H]4O)[C@H]3O)[C@H]2O)[C@H](O)[C@H]1O [Compound 28],–,–,–,–,–,–,–,–,0.0145,–,–
